In patent US20250345391A1, “COMPOSITIONS AND METHODS FOR THE TREATMENT OF SEPSIS” (Children's Hospital Medical Center, priority 2022, published 2025):

Assays:
[1] = system: syndecan-1; assay: Plasma syndecan-1 (glycocalyx damage) after CLP sepsis, ELISA; format: in vivo, Male C57BL/6 mice; settings: 6 h after CLP; colivelin 100 or 200 μg/kg i.p. at 1 h after CLP; vs vehicle; dose-independent
Source text: The investigation conformed to the National Institutes of Health Guide for the Care and Use of Laboratory Animals (Eighth Edition, 2011) and was approved by the Institutional Animal Care and Use Committee of the Cincinnati Children's Hospital Medical Center. Male C57BL/6 mice were obtained from Charles River Laboratories International, Inc. (Wilmington, MA). Mice were used at 3-5 months of age to mimic the equivalent for human ranges from 20-25 years (29). Male mice only were chosen for the experimentation to avoid interference from female hormonal fluctuations in sepsis responses during the estrous cycle. Mice were housed in pathogen-free conditions under a 10-h light/14-h dark cycle with free access to food and water. […] Plasma levels of tumor necrosis factor-α (TNFα), interleukin (IL)-1β, IL-6, IL-10, keratinocytes-derived chemokine (KC), and macrophage inflammatory proteins (MIP-1α) were used as indices of the systemic inflammatory response and were evaluated by a commercially available multiplex array system (Milliplex, Millipore Corporation, Billerica, MA). Plasma levels of endoglin, intercellular adhesion molecule-1 (ICAM-1), P-selectin, proprotein convertase subtilisin/kexin type 9 (PCSK9), and angiopoietin-2 (Ang 2) were used as indices of endothelial injury and were evaluated by a commercially available multiplex array system (R&D Systems, Minneapolis, MN). […]

[2] = system: endothelial glycocalyx and mitochondria of thoracic aortas; assay: Transmission electron microscopy of thoracic aortas with lanthanum staining after CLP; format: in vivo, Male C57BL/6 mice; settings: 6 h after CLP; colivelin 100 μg/kg i.p. at 1 h after CLP; vs vehicle
Source text: The investigation conformed to the National Institutes of Health Guide for the Care and Use of Laboratory Animals (Eighth Edition, 2011) and was approved by the Institutional Animal Care and Use Committee of the Cincinnati Children's Hospital Medical Center. Male C57BL/6 mice were obtained from Charles River Laboratories International, Inc. (Wilmington, MA). Mice were used at 3-5 months of age to mimic the equivalent for human ranges from 20-25 years (29). Male mice only were chosen for the experimentation to avoid interference from female hormonal fluctuations in sepsis responses during the estrous cycle. Mice were housed in pathogen-free conditions under a 10-h light/14-h dark cycle with free access to food and water. Mice were anesthetized with 2.0% isoflurane in 50% oxygen and polymicrobial sepsis was induced by cecal ligation and puncture (CLP) (30). After a midline laparotomy, the cecum was exteriorized, ligated and punctured twice with a 23-G needle. The cecum was then returned into the peritoneal cavity and the abdominal incision was closed. […]
Glycocalyx structure was assessed by transmission electron microscopy (35). […]

Colivelin (SALLRSIPAPAGASRLLLLTGEIDLP)
Levels of plasma syndecan-1 [1]: significantly decreased
Dense structure of endothelial glycocalyx in thoracic aorta (electron microscopy) [2]: appeared well preserved
Mitochondria in thoracic aorta cells (electron microscopy) [2]: appeared normal with dense matrix in all cell types
